Laboratory results published in article PMC10392749, “PIP5K1C phosphoinositide kinase deficiency distinguishes PIKFYVE-dependent cancer cells from non-malignant cells” (Autophagy, 2023).

What was measured:
PIP4K2C = molecular target: T1, PIP4K2C (Homo sapiens, UniProt Q8TBX8); test: KiNativ ATP-probe chemoproteomics in A375 cells treated with WX8; in vitro kinase binding assay (Fig. 2F); assay type: biochemical
T1 sequence (Q8TBX8 2-421): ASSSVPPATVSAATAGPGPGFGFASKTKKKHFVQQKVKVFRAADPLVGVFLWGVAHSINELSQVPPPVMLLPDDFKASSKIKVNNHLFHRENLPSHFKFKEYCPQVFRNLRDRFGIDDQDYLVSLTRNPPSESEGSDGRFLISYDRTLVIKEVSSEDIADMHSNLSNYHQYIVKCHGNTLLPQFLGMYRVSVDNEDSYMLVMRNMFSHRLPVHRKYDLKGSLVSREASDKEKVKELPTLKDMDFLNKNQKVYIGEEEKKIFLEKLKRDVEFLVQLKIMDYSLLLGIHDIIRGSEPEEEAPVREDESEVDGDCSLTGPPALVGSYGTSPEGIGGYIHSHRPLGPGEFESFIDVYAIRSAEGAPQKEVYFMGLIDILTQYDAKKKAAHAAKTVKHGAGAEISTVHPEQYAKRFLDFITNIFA

PIKFYVE = PIKFYVE (Homo sapiens, UniProt Q9Y2I7); test: as above; assay type: cell-based; conditions: A-375
CHUK/IKKA = molecular target: T2, CHUK/IKKA (Homo sapiens, UniProt O15111); test: KiNativ ATP-probe chemoproteomics in A375 cells treated with WX8; assay type: cell-based; conditions: A-375
T2 sequence (O15111 1-745): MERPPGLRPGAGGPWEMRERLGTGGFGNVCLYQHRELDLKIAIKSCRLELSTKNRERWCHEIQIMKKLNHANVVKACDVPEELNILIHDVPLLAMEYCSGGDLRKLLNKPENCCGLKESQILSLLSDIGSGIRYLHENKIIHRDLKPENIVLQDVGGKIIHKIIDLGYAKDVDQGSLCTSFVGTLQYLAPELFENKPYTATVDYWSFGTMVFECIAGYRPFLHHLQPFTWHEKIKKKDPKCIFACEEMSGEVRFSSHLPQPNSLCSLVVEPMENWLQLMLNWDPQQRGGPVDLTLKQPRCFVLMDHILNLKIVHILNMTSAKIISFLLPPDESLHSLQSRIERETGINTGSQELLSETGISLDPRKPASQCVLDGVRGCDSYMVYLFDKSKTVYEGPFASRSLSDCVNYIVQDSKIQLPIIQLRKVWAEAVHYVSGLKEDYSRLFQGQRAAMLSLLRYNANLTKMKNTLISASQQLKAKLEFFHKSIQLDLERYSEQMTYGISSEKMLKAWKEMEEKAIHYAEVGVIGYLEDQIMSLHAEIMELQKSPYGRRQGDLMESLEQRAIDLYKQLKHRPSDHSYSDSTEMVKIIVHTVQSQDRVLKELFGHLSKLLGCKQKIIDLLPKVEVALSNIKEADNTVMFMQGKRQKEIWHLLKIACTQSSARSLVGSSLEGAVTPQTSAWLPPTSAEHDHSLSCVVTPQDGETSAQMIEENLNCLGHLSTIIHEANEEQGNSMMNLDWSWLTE

Chain of PIKFYVE (Q9Y2I7 2-2098): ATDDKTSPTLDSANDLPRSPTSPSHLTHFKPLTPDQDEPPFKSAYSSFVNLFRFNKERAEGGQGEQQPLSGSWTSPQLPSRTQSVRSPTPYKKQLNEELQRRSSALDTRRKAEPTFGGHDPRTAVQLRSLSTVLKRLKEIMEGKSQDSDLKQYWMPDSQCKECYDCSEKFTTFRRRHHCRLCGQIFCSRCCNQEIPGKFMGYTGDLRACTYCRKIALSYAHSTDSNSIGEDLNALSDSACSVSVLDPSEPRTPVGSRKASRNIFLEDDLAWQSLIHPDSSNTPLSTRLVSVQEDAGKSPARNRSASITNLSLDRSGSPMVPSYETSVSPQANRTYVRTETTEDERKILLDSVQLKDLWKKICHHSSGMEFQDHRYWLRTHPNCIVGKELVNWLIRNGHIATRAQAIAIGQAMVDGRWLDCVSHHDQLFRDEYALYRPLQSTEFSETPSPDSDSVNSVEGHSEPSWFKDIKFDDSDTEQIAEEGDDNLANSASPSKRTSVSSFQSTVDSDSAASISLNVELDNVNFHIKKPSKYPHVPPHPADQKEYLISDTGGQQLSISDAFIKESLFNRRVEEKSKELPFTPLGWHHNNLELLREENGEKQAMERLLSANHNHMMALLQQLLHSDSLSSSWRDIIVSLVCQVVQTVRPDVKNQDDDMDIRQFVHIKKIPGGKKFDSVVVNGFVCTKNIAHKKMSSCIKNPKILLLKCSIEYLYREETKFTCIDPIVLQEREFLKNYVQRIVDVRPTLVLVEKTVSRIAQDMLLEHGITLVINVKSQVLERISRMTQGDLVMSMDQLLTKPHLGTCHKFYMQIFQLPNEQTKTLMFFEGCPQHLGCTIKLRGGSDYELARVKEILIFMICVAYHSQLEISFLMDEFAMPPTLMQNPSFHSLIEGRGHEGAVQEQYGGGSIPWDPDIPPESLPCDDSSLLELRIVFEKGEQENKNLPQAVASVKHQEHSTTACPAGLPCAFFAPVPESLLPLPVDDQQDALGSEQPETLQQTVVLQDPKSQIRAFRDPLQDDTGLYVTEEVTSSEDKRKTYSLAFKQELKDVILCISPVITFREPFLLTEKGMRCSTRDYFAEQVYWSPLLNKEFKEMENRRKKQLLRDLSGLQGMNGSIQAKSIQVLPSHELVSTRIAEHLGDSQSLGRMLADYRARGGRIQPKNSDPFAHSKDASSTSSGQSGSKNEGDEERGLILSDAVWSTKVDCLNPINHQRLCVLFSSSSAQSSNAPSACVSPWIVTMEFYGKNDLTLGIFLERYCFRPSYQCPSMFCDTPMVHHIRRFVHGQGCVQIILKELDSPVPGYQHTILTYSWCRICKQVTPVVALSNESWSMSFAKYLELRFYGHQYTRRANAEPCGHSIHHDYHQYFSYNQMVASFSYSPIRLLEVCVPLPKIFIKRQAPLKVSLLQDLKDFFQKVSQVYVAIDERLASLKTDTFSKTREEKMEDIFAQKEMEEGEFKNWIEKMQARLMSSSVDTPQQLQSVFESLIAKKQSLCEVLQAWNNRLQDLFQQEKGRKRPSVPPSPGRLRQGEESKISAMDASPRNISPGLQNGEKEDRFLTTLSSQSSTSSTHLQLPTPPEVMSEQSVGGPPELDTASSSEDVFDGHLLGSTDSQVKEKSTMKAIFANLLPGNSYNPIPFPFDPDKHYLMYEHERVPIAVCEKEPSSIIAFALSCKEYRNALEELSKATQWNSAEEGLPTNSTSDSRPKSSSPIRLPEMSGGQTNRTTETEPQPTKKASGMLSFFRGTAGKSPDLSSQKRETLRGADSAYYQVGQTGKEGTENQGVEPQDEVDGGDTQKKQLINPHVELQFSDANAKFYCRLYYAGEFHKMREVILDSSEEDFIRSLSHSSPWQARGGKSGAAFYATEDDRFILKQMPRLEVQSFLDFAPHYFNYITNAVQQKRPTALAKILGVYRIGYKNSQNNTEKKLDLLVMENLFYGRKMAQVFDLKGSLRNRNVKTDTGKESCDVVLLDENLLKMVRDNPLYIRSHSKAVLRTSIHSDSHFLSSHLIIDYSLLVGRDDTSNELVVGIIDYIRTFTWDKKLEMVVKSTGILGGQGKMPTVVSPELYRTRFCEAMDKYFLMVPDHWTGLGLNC

`C(=NNc1nc(Nc2ccccc2)nc(N2CCOCC2)n1)c1c[nH]c2ccccc12` [WX8, 1H-indole-3-carbaldehyde (4-anilino-6-[4-morpholinyl]-1,3,5-triazin-2-yl)hydrazone] gave an IC50 (PIP4K2C) of ~1000 nM, an inhibition at 1 µM (PIKFYVE) of 97% and an inhibition at 1 µM (CHUK/IKKA) of 39%.
